Reference: patent publication US20100267743A1, “3-(PHENOXYPYRROLIDIN-3-YL-METHYL)HETEROARYL, 3-(PHENYLPYRROLIDIN-3-YLMETHOXY)HETEROARYL, AND 3-(HETEROARYLPYRROLIDIN-3-YLMETHOXY)HETEROARYL COMPOUNDS” (priority 2009, published 2010)

Columns and labels:
[1] = molecular target: NET (Homo sapiens, UniProt P23975); experiment: hNET radioligand binding assay (3H-nisoxetine); parameters: expressed in transfected cells; host or cells: HEK-293; details: hNET membranes (HEK-293), 1.0 nM 3H-nisoxetine; for Ki: read-out: NET pKi (converted)
Procedure: (§1) Membrane radioligand binding assays were used to measure inhibition of labeled ligand (^3H-citalopram or ^3H-nisoxetine or ^3H-WIN35428) binding to membranes prepared from cells expressing the respective human recombinant transporter (hSERT or hNET or hDAT) in order to determine the pKi values of test compounds at the transporters.
(§2) Recombinant human embryonic kidney (HEK-293) derived cell lines stably transfected with hSERT or hNET, respectively, were grown in DMEM medium supplemented with 10% dialyzed FBS (for hSERT) or FBS (for hNET), 100 μg/ml penicillin, 100 μg/ml streptomycin, 2 mM L-glutamine and 250 μg/ml of the aminoglycoside antibiotic G418, in a 5% CO2 humidified incubator at 37° C. When cultures reached 80% confluence, the cells were washed thoroughly in PBS (without […] and Mg^2+) and lifted with 5 mM EDTA in PBS. Cells were pelleted by centrifugation, resuspended in lysis buffer (10 mM Tris-HCl, pH7.5 containing 1 mM EDTA), homogenized, pelleted by centrifugation, then resuspended in 50 mM Tris-HCl, pH 7.5 and 10% sucrose at 4° C. Protein concentration of the membrane suspension was determined using a Bio-Rad Bradford Protein Assay kit. Membranes were snap frozen and stored at −80° C. Chinese hamster ovary membranes expressing hDAT (CHO-DAT) were purchased from PerkinElmer and stored at −80° C.
(§3) Binding assays were performed in a 96-well assay plate in a total volume of 200 μl assay buffer (50 mM Tris-HCl, 120 mM NaCl, 5 mM KCl, pH 7.4) with 0.5, 1, and 3 μg membrane protein, for SERT, NET and DAT, respectively.
(§4) Stock solutions (10 mM in DMSO) of test compound were prepared and serial dilutions made using Dilution Buffer (50 mM Tris-HCl, 120 mM NaCl, 5 mM KCl, pH 7.4, 0.1% BSA, 400 μM ascorbic acid).
(§5) Following a 60 minute incubation at 22° C. (or a period sufficient to reach equilibrium), the membranes were harvested by rapid filtration over a 96-well UniFilter GF/B plate, pretreated with 0.3% polyethyleneimine, and washed 6 times with 300 μl wash buffer (50 mM Tris-HCl, 0.9% NaCl, pH 7.5 at 4° C.). Plates were dried overnight at room temperature, ˜45 μl of MicroScint™-20 (Perkin Elmer) added and bound radioactivity quantitated via liquid scintillation spectroscopy. Inhibition curves and saturation isotherms were analyzed using GraphPad Prism Software package (GraphPad Software, Inc., San Diego, Calif.). IC50 values were generated from concentration response curves using the Sigmoidal Dose Response (variable slope) algorithm in Prism GraphPad. Kd and Bmax values for the radioligand were generated from saturation isotherms using the Saturation Binding Global Fit algorithm in Prism GraphPad. pKi (negative decadic logarithm of Ki) values for test compounds were calculated from the best-fit IC50 values, and the Kd value of the radioligand, using the Cheng-Prusoff equation (Cheng & Prusoff (1973) Biochem. Pharmacol. 22(23):3099-3108): Ki=IC50/(1+[L]/Kd), where [L]=concentration radioligand.

[2] = molecular target: SERT (Homo sapiens, UniProt P31645); experiment: hSERT radioligand binding assay (3H-citalopram); parameters: expressed in transfected cells; host or cells: HEK-293; details: hSERT membranes (HEK-293), 1.0 nM 3H-citalopram; for Ki: read-out: SERT pKi (converted)
Procedure: as §1, §2, §3, §4, §5

Sequence of NET (P23975 whole entry): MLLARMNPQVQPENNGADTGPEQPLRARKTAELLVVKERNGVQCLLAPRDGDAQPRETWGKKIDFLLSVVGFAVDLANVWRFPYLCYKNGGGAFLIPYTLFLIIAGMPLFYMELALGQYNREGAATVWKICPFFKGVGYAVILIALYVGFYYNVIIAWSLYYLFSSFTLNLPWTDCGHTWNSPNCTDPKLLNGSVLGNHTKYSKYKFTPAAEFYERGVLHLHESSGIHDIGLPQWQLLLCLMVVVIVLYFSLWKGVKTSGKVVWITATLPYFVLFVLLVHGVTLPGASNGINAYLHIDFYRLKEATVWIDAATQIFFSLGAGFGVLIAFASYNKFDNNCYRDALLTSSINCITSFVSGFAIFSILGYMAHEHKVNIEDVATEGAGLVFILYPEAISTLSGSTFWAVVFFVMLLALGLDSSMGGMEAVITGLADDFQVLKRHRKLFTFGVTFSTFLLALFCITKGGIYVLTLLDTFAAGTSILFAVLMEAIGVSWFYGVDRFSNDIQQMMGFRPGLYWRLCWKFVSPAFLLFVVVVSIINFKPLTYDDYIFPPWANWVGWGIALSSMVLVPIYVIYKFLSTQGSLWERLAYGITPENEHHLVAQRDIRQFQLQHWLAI
Sequence of SERT (P31645 whole entry): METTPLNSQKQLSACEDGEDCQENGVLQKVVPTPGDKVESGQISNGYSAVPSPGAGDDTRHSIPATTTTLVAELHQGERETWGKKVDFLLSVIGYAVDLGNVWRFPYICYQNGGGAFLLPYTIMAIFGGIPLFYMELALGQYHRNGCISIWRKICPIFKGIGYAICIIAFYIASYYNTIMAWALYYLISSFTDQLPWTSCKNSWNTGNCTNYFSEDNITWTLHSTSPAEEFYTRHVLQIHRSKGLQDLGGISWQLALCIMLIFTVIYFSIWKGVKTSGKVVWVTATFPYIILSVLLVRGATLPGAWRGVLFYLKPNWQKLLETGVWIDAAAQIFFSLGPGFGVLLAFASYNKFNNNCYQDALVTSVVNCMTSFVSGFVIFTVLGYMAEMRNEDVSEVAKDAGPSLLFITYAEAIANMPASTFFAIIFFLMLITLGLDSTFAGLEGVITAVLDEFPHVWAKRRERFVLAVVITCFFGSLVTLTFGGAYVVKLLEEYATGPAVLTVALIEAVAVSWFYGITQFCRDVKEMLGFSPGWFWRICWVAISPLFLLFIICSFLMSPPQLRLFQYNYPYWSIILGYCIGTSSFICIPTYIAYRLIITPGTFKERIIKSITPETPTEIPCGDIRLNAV

Row | Ki [1] [µM] | Ki [2] [µM] | Compound | NET pKi [1] | SERT pKi [2]
1 | – | – | Cc1cc(Cl)ccc1O[C@@H](c1cnccn1)[C@H]1CCNC1.O=C(O)C(F)(F)F [10-5] | ≧7.0 | ≧7.0
2 | ≤ 10 | ≤ 0.1 | Cc1cc(Cl)ccc1O[C@H](c1cnccn1)[C@H]1CCNC1 [10-6] | – | –
3 | – | – | COc1ccccc1O[C@@H](c1cnccn1)[C@H]1CCNC1.O=C(O)C(F)(F)F [10-7] | ≧7.0 | ≧5.0
4 | ≤ 10 | ≤ 10 | COc1ccccc1O[C@H](c1cnccn1)[C@H]1CCNC1 [10-8] | – | –
5 | ≤ 10 | ≤ 0.1 | Clc1cc(Cl)cc(O[C@H](c2cnccn2)[C@H]2CCNC2)c1 [10-10] | – | –
6 | – | – | Fc1ccc(F)c(O[C@@H](c2cncnc2)[C@H]2CCNC2)c1Cl.O=C(O)C(F)(F)F [12-1] | ≧7.0 | ≧5.0
7 | ≤ 10 | ≤ 0.1 | Fc1ccc(F)c(O[C@H](c2cncnc2)[C@H]2CCNC2)c1Cl [12-2] | – | –
8 | – | – | Cc1cc(Cl)ccc1O[C@@H](c1cncnc1)[C@H]1CCNC1.O=C(O)C(F)(F)F [12-3] | ≧7.0 | ≧7.0
9 | – | – | COc1ccccc1OC(c1cncnc1)C1CCNC1 (stereo not drawn) [12-4] | ≧7.0 | ≧5.0
10 | – | – | Clc1cc(Cl)cc(O[C@@H](c2cncnc2)[C@H]2CCNC2)c1.O=C(O)C(F)(F)F [12-5] | ≧5.0 | ≧7.0
11 | – | – | Fc1cc(F)c(O[C@@H](c2ccccc2)[C@H]2CCNC2)nc1F.O=C(O)C(F)(F)F [14-1] | ≧5.0 | ≧7.0
12 | – | – | Cc1c(F)c(F)nc(O[C@@H](c2ccccc2)[C@H]2CCNC2)c1F.O=C(O)C(F)(F)F [14-4] | ≧5.0 | ≧7.0
13 | – | – | Fc1ccc(O[C@@H](c2ccccc2)[C@H]2CCNC2)nc1F.O=C(O)C(F)(F)F [14-5] | ≧7.0 | ≧5.0
14 | – | – | Fc1c(Cl)nc(O[C@@H](c2ccccc2)[C@H]2CCNC2)c(F)c1Cl.O=C(O)C(F)(F)F [14-6] | ≧7.0 | ≧7.0
15 | – | – | Clc1cccc(O[C@@H](c2ccccc2)[C@H]2CCNC2)n1.O=C(O)C(F)(F)F [14-9] | ≧7.0 | ≧7.0
16 | – | – | Fc1cccc(O[C@@H](c2ccccc2)[C@H]2CCNC2)n1.O=C(O)C(F)(F)F [14-10] | ≧7.0 | ≧5.0
17 | – | – | Cc1cccc(O[C@@H](c2ccccc2)[C@H]2CCNC2)n1.O=C(O)C(F)(F)F [14-11] | ≧5.0 | ≧5.0
18 | – | – | Cc1nc(O[C@@H](c2ccccc2)[C@H]2CCNC2)c(Br)cc1Br.O=C(O)C(F)(F)F [14-12] | ≧7.0 | ≧7.0
19 | – | – | Brc1cnc(O[C@@H](c2ccccc2)[C@H]2CCNC2)c(Br)c1.O=C(O)C(F)(F)F [14-13] | ≧7.0 | ≧7.0
20 | – | – | Clc1cnc(OC(c2ccccc2)C2CCNC2)c(Cl)c1 (stereo not drawn) [14-14] | ≧7.0 | ≧7.0
21 | – | – | Fc1cnc(O[C@H](c2ccccc2)[C@@H]2CCNC2)c(F)c1.O=C(O)C(F)(F)F [14-16] | ≧7.0 | ≧7.0
22 | – | – | Fc1cnc(O[C@@H](c2ccccc2)[C@H]2CCNC2)c(F)c1.O=C(O)C(F)(F)F [14-17] | ≧7.0 | ≧5.0
23 | – | – | Fc1cnc(O[C@@H](c2ccccc2)[C@H]2CCNC2)c(F)c1C(F)(F)F.O=C(O)C(F)(F)F [14-18] | ≧7.0 | ≧7.0
24 | – | – | Brc1ccc(O[C@@H](c2ccccc2)[C@H]2CCNC2)nc1.O=C(O)C(F)(F)F [14-20] | ≧7.0 | ≧7.0
25 | – | – | Cc1cc(Br)cnc1O[C@@H](c1ccccc1)[C@H]1CCNC1.O=C(O)C(F)(F)F [14-21] | ≧7.0 | ≧7.0
26 | – | – | FC(F)(F)c1ccc(O[C@@H](c2ccccc2)[C@H]2CCNC2)nc1.O=C(O)C(F)(F)F [14-23] | ≧5.0 | ≧7.0
27 | – | – | FC(F)(F)c1ccc(O[C@H](c2ccccc2)[C@@H]2CCNC2)nc1.O=C(O)C(F)(F)F [14-24] | ≧5.0 | ≧7.0
